# Biological target: Phospholipid-transporting ATPase ABCA1 (Mus musculus, UniProt P41233)
# Experiment: Induction of ABCA1-mediated [3H]cholesterol efflux in mouse RAW 264.7 macrophages after 24 hrs
# Chain of Phospholipid-transporting ATPase ABCA1 (P41233 whole entry): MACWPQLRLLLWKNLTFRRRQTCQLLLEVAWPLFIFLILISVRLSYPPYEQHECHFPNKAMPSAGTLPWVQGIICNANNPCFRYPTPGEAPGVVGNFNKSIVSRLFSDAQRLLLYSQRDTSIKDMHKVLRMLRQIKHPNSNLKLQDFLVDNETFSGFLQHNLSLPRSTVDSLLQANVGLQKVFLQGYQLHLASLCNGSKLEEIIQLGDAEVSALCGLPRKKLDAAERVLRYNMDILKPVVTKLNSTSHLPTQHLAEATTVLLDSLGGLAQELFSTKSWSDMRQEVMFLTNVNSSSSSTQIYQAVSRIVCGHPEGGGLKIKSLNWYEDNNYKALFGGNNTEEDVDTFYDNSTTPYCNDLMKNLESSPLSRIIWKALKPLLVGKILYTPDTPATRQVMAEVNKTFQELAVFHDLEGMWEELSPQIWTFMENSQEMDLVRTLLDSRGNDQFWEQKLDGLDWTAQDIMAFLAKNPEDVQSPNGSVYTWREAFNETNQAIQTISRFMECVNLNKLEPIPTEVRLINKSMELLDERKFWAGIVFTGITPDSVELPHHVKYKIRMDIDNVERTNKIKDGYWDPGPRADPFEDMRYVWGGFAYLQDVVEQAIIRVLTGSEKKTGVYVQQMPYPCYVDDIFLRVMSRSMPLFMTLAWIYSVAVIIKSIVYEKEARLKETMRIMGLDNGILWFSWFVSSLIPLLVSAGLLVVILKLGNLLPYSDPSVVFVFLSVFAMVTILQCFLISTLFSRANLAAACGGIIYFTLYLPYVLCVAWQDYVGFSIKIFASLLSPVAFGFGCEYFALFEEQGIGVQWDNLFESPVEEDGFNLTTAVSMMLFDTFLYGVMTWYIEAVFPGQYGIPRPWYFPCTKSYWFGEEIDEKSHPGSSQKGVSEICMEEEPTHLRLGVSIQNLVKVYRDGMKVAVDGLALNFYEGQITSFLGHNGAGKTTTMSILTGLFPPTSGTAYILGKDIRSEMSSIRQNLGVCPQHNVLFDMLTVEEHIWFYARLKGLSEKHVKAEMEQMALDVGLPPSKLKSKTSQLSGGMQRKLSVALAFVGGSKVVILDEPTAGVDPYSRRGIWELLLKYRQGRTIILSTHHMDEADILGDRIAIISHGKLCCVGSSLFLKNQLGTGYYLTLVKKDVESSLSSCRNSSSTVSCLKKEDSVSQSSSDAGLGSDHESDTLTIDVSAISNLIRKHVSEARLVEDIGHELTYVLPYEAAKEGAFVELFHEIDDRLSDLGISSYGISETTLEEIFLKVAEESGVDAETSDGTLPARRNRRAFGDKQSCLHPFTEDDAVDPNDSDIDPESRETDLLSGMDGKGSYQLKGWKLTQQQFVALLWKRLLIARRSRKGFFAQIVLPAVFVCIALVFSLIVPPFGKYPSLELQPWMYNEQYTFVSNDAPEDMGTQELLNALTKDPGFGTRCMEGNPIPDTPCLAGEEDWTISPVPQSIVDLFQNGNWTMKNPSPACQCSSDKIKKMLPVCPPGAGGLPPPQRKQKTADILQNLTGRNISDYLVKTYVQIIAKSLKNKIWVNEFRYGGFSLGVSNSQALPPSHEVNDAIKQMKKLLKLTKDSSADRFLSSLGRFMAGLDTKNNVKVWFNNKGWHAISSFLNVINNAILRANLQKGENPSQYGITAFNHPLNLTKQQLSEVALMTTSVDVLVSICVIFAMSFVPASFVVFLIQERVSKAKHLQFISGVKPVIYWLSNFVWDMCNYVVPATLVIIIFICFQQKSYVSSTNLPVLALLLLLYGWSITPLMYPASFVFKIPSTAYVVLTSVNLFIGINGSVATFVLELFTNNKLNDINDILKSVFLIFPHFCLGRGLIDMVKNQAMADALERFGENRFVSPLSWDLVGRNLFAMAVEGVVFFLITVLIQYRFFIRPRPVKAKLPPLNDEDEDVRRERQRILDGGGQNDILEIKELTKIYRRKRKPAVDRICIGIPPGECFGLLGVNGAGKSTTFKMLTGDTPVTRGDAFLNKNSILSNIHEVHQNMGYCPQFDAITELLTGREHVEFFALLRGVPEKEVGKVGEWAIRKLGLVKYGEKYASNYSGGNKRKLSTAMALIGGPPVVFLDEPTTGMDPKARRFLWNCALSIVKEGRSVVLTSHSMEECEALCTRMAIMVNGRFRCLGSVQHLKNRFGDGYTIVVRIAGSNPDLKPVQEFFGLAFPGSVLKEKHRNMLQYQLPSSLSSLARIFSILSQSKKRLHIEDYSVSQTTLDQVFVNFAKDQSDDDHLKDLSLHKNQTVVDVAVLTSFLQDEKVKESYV
row,EC50 [µM],Structure (SMILES)
1,> 100,C=CCCCC[C@H](NC(=O)[C@@H]1CCCN1C(C)=O)C(=O)N[C@@H](CC(C)C)C(=O)N[C@@H](CC(=O)O)C(=O)N[C@@H](CCC(=O)O)C(=O)N[C@@H](Cc1ccccc1)C(=O)N[C@@H](CCCN=C(N)N)C(=O)N[C@@H](CCC(=O)O)C(=O)N[C@@H](CCCCN)C(=O)N[C@@H](CC(C)C)C(=O)N[C@@H](CC(N)=O)C(=O)N[C@@H](CCC(=O)O)C(=O)N[C@@H](CCC(=O)O)C(=O)N[C@@H](CC(C)C)C(=O)N[C@@H](CCC(=O)O)C(=O)N[C@@H](C)C(=O)N[C@@H](CC(C)C)C(=O)N[C@@H](CCCCN)C(=O)N[C@@H](CCC(N)=O)C(=O)N[C@@H](CCCCN)C(=O)N[C@@H](CC(C)C)C(=O)N[C@@H](CCCCN)C(N)=O
2,> 100,C=CCCCC[C@H](NC(=O)[C@@H](NC(=O)[C@@H]1CCCN1C(C)=O)C(C)C)C(=O)N[C@@H](CC(=O)O)C(=O)N[C@@H](CCC(=O)O)C(=O)N[C@@H](Cc1ccccc1)C(=O)N[C@@H](CCCNC(=N)N)C(=O)N[C@@H](CCC(=O)O)C(=O)N[C@@H](CCCCN)C(=O)N[C@@H](CC(C)C)C(=O)N[C@@H](CC(N)=O)C(=O)N[C@@H](CCC(=O)O)C(=O)N[C@@H](CCC(=O)O)C(=O)N[C@@H](CC(C)C)C(=O)N[C@@H](CCC(=O)O)C(=O)N[C@@H](C)C(=O)N[C@@H](CC(C)C)C(=O)N[C@@H](CCCCN)C(=O)N[C@@H](CCC(N)=O)C(=O)N[C@@H](CCCCN)C(=O)N[C@@H](CC(C)C)C(=O)N[C@@H](CCCCN)C(N)=O
3,> 100,C=CCCCC[C@H](NC(=O)[C@H](CCC(=O)O)NC(=O)[C@H](CC(=O)O)NC(=O)[C@H](CC(C)C)NC(=O)[C@@H](NC(=O)[C@@H]1CCCN1C(C)=O)C(C)C)C(=O)N[C@@H](CCCNC(=N)N)C(=O)N[C@@H](CCC(=O)O)C(=O)N[C@@H](CCCCN)C(=O)N[C@@H](CC(C)C)C(=O)N[C@@H](CC(N)=O)C(=O)N[C@@H](CCC(=O)O)C(=O)N[C@@H](CCC(=O)O)C(=O)N[C@@H](CC(C)C)C(=O)N[C@@H](CCC(=O)O)C(=O)N[C@@H](C)C(=O)N[C@@H](CC(C)C)C(=O)N[C@@H](CCCCN)C(=O)N[C@@H](CCC(N)=O)C(=O)N[C@@H](CCCCN)C(=O)N[C@@H](CC(C)C)C(=O)N[C@@H](CCCCN)C(N)=O
4,> 100,C=CCCCC[C@H](NC(=O)[C@H](CCC(=O)O)NC(=O)[C@H](CCCN=C(N)N)NC(=O)[C@H](Cc1ccccc1)NC(=O)[C@H](CCC(=O)O)NC(=O)[C@H](CC(=O)O)NC(=O)[C@H](CC(C)C)NC(=O)[C@@H](NC(=O)[C@@H]1CCCN1C(C)=O)C(C)C)C(=O)N[C@@H](CC(C)C)C(=O)N[C@@H](CC(N)=O)C(=O)N[C@@H](CCC(=O)O)C(=O)N[C@@H](CCC(=O)O)C(=O)N[C@@H](CC(C)C)C(=O)N[C@@H](CCC(=O)O)C(=O)N[C@@H](C)C(=O)N[C@@H](CC(C)C)C(=O)N[C@@H](CCCCN)C(=O)N[C@@H](CCC(N)=O)C(=O)N[C@@H](CCCCN)C(=O)N[C@@H](CC(C)C)C(=O)N[C@@H](CCCCN)C(N)=O
5,> 100,C=CCCCC[C@H](NC(=O)[C@H](CCC(=O)O)NC(=O)[C@H](CCC(=O)O)NC(=O)[C@H](CC(N)=O)NC(=O)[C@H](CC(C)C)NC(=O)[C@H](CCCCN)NC(=O)[C@H](CCC(=O)O)NC(=O)[C@H](CCCNC(=N)N)NC(=O)[C@H](Cc1ccccc1)NC(=O)[C@H](CCC(=O)O)NC(=O)[C@H](CC(=O)O)NC(=O)[C@H](CC(C)C)NC(=O)[C@@H](NC(=O)[C@@H]1CCCN1C(C)=O)C(C)C)C(=O)N[C@@H](CCC(=O)O)C(=O)N[C@@H](C)C(=O)N[C@@H](CC(C)C)C(=O)N[C@@H](CCCCN)C(=O)N[C@@H](CCC(N)=O)C(=O)N[C@@H](CCCCN)C(=O)N[C@@H](CC(C)C)C(=O)N[C@@H](CCCCN)C(N)=O
6,> 100,C=CCCCC[C@H](NC(=O)[C@H](C)NC(=O)[C@H](CCC(=O)O)NC(=O)[C@H](CC(C)C)NC(=O)[C@H](CCC(=O)O)NC(=O)[C@H](CCC(=O)O)NC(=O)[C@H](CC(N)=O)NC(=O)[C@H](CC(C)C)NC(=O)[C@H](CCCCN)NC(=O)[C@H](CCC(=O)O)NC(=O)[C@H](CCCNC(=N)N)NC(=O)[C@H](Cc1ccccc1)NC(=O)[C@H](CCC(=O)O)NC(=O)[C@H](CC(=O)O)NC(=O)[C@H](CC(C)C)NC(=O)[C@@H](NC(=O)[C@@H]1CCCN1C(C)=O)C(C)C)C(=O)N[C@@H](CCCCN)C(=O)N[C@@H](CCC(N)=O)C(=O)N[C@@H](CCCCN)C(=O)N[C@@H](CC(C)C)C(=O)N[C@@H](CCCCN)C(N)=O
7,213,C=CCCCC[C@H](NC(=O)[C@H](CCC(N)=O)NC(=O)[C@H](CCCCN)NC(=O)[C@H](CC(C)C)NC(=O)[C@H](C)NC(=O)[C@H](CCC(=O)O)NC(=O)[C@H](CC(C)C)NC(=O)[C@H](CCC(=O)O)NC(=O)[C@H](CCC(=O)O)NC(=O)[C@H](CC(N)=O)NC(=O)[C@H](CC(C)C)NC(=O)[C@H](CCCCN)NC(=O)[C@H](CCC(=O)O)NC(=O)[C@H](CCCNC(=N)N)NC(=O)[C@H](Cc1ccccc1)NC(=O)[C@H](CCC(=O)O)NC(=O)[C@H](CC(=O)O)NC(=O)[C@H](CC(C)C)NC(=O)[C@@H](NC(=O)[C@@H]1CCCN1C(C)=O)C(C)C)C(=O)N[C@@H](CC(C)C)C(=O)N[C@@H](CCCCN)C(N)=O
8,> 100,C=CCCCC[C@H](NC(=O)[C@H](CCCCN)NC(=O)[C@H](CCC(N)=O)NC(=O)[C@H](CCCCN)NC(=O)[C@H](CC(C)C)NC(=O)[C@H](C)NC(=O)[C@H](CCC(=O)O)NC(=O)[C@H](CC(C)C)NC(=O)[C@H](CCC(=O)O)NC(=O)[C@H](CCC(=O)O)NC(=O)[C@H](CC(N)=O)NC(=O)[C@H](CC(C)C)NC(=O)[C@H](CCCCN)NC(=O)[C@H](CCC(=O)O)NC(=O)[C@H](CCCNC(=N)N)NC(=O)[C@H](Cc1ccccc1)NC(=O)[C@H](CCC(=O)O)NC(=O)[C@H](CC(=O)O)NC(=O)[C@H](CC(C)C)NC(=O)[C@@H](NC(=O)[C@@H]1CCCN1C(C)=O)C(C)C)C(=O)N[C@@H](CCCCN)C(N)=O
9,> 100,C=CCCCC[C@H](NC(=O)[C@H](CCCCN)NC(=O)[C@H](CCC(=O)O)NC(=O)[C@H](CCCN=C(N)N)NC(=O)[C@H](Cc1ccccc1)NC(=O)[C@H](CCC(=O)O)NC(=O)[C@H](CC(=O)O)NC(=O)[C@H](CC(C)C)NC(=O)[C@@H](NC(=O)[C@@H]1CCCN1C(C)=O)C(C)C)C(=O)N[C@@H](CC(N)=O)C(=O)N[C@@H](CCC(=O)O)C(=O)N[C@@H](CCC(=O)O)C(=O)N[C@@H](CC(C)C)C(=O)N[C@@H](CCC(=O)O)C(=O)N[C@@H](C)C(=O)N[C@@H](CC(C)C)C(=O)N[C@@H](CCCCN)C(=O)N[C@@H](CCC(N)=O)C(=O)N[C@@H](CCCCN)C(=O)N[C@@H](CC(C)C)C(=O)N[C@@H](CCCCN)C(N)=O
10,> 100,C=CCCCC[C@@H](NC(=O)[C@@H]1CCCN1C(C)=O)C(=O)N[C@@H](CC(C)C)C(=O)N[C@@H](CC(=O)O)C(=O)N[C@@H](CCC(=O)O)C(=O)N[C@@H](Cc1ccccc1)C(=O)N[C@@H](CCCN=C(N)N)C(=O)N[C@@H](CCC(=O)O)C(=O)N[C@@H](CCCCN)C(=O)N[C@@H](CC(C)C)C(=O)N[C@@H](CC(N)=O)C(=O)N[C@@H](CCC(=O)O)C(=O)N[C@@H](CCC(=O)O)C(=O)N[C@@H](CC(C)C)C(=O)N[C@@H](CCC(=O)O)C(=O)N[C@@H](C)C(=O)N[C@@H](CC(C)C)C(=O)N[C@@H](CCCCN)C(=O)N[C@@H](CCC(N)=O)C(=O)N[C@@H](CCCCN)C(=O)N[C@@H](CC(C)C)C(=O)N[C@@H](CCCCN)C(N)=O
11,> 100,C=CCCCC[C@@H](NC(=O)[C@@H](NC(=O)[C@@H]1CCCN1C(C)=O)C(C)C)C(=O)N[C@@H](CC(=O)O)C(=O)N[C@@H](CCC(=O)O)C(=O)N[C@@H](Cc1ccccc1)C(=O)N[C@@H](CCCNC(=N)N)C(=O)N[C@@H](CCC(=O)O)C(=O)N[C@@H](CCCCN)C(=O)N[C@@H](CC(C)C)C(=O)N[C@@H](CC(N)=O)C(=O)N[C@@H](CCC(=O)O)C(=O)N[C@@H](CCC(=O)O)C(=O)N[C@@H](CC(C)C)C(=O)N[C@@H](CCC(=O)O)C(=O)N[C@@H](C)C(=O)N[C@@H](CC(C)C)C(=O)N[C@@H](CCCCN)C(=O)N[C@@H](CCC(N)=O)C(=O)N[C@@H](CCCCN)C(=O)N[C@@H](CC(C)C)C(=O)N[C@@H](CCCCN)C(N)=O
12,> 100,C=CCCCC[C@@H](NC(=O)[C@H](CCC(=O)O)NC(=O)[C@H](CC(=O)O)NC(=O)[C@H](CC(C)C)NC(=O)[C@@H](NC(=O)[C@@H]1CCCN1C(C)=O)C(C)C)C(=O)N[C@@H](CCCN=C(N)N)C(=O)N[C@@H](CCC(=O)O)C(=O)N[C@@H](CCCCN)C(=O)N[C@@H](CC(C)C)C(=O)N[C@@H](CC(N)=O)C(=O)N[C@@H](CCC(=O)O)C(=O)N[C@@H](CCC(=O)O)C(=O)N[C@@H](CC(C)C)C(=O)N[C@@H](CCC(=O)O)C(=O)N[C@@H](C)C(=O)N[C@@H](CC(C)C)C(=O)N[C@@H](CCCCN)C(=O)N[C@@H](CCC(N)=O)C(=O)N[C@@H](CCCCN)C(=O)N[C@@H](CC(C)C)C(=O)N[C@@H](CCCCN)C(N)=O
13,> 100,C=CCCCC[C@@H](NC(=O)[C@H](CCC(=O)O)NC(=O)[C@H](CCCNC(=N)N)NC(=O)[C@H](Cc1ccccc1)NC(=O)[C@H](CCC(=O)O)NC(=O)[C@H](CC(=O)O)NC(=O)[C@H](CC(C)C)NC(=O)[C@@H](NC(=O)[C@@H]1CCCN1C(C)=O)C(C)C)C(=O)N[C@@H](CC(C)C)C(=O)N[C@@H](CC(N)=O)C(=O)N[C@@H](CCC(=O)O)C(=O)N[C@@H](CCC(=O)O)C(=O)N[C@@H](CC(C)C)C(=O)N[C@@H](CCC(=O)O)C(=O)N[C@@H](C)C(=O)N[C@@H](CC(C)C)C(=O)N[C@@H](CCCCN)C(=O)N[C@@H](CCC(N)=O)C(=O)N[C@@H](CCCCN)C(=O)N[C@@H](CC(C)C)C(=O)N[C@@H](CCCCN)C(N)=O
14,> 100,C=CCCCC[C@@H](NC(=O)[C@H](CCCCN)NC(=O)[C@H](CCC(=O)O)NC(=O)[C@H](CCCNC(=N)N)NC(=O)[C@H](Cc1ccccc1)NC(=O)[C@H](CCC(=O)O)NC(=O)[C@H](CC(=O)O)NC(=O)[C@H](CC(C)C)NC(=O)[C@@H](NC(=O)[C@@H]1CCCN1C(C)=O)C(C)C)C(=O)N[C@@H](CC(N)=O)C(=O)N[C@@H](CCC(=O)O)C(=O)N[C@@H](CCC(=O)O)C(=O)N[C@@H](CC(C)C)C(=O)N[C@@H](CCC(=O)O)C(=O)N[C@@H](C)C(=O)N[C@@H](CC(C)C)C(=O)N[C@@H](CCCCN)C(=O)N[C@@H](CCC(N)=O)C(=O)N[C@@H](CCCCN)C(=O)N[C@@H](CC(C)C)C(=O)N[C@@H](CCCCN)C(N)=O

# — ChEMBL document CHEMBL1629456, “ApoA-I mimetic peptides promote pre-β HDL formation in vivo causing remodeling of HDL and triglyceride accumulation at higher dose” (Bioorg Med Chem, 2010)
